Experimental data published in article PMC11111408, “Concurrent inhibition of oncogenic and wild-type RAS-GTP for cancer therapy” (Nature, 2024).
Several values for one entry are separate records, joined by “and”; a condition that tells them apart may be missing. Equal entries are not always repeated. Where two headings read alike, the source gives them in different places.

Legend:
[1] = test system: AsPC-1 and NCI-H441 cells; assay: pERK (MSD) and proliferation (CTG) in AsPC-1 and NCI-H441 cells, CYPA inhibitor co-treatment or PPIA KO; format: cell-based, human;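 on Proliferation inhibition with CYPA inhibitor competition: luminescence as % of CYPA inhibitor-only control with 3 mM sanglifehrin A competitor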
[2] = target: KRAS^G12R (Homo sapiens, UniProt P01116+P62937, G12R); assay: Cellular RAS–CYPA binding (tri-complex formation), nano-BRET in U2OS cells; format: cell-based; set-up: expressed in transfected cells; host or cells: U2OS; conditions: (95% CI)
From the text: (§1) KRAS4B, or other small GTPases, containing the indicated mutations were cloned in pNLF-N or pHTN plasmids for expression with an N-terminal nanoluciferase or HaloTag fusion, respectively. […] The following day, the cells were collected by Trypsin and reseeded in a white tissue culture-treated 96-well plate in OptiMem phenol red-free medium (Gibco) containing 4% FBS and a 1:1,000 dilution of NanoBRET 618 HaloTag ligand (Promega). For endpoint concentration response curves, vivazine nanoluciferase substrate was added to 1× concentration in OptiMem phenol red-free medium with 4% FBS. Varying concentrations of inhibitor were added and incubated for 1 or 4 h before the nano-BRET signal was measured on a Perkin Elmer Envision plate reader. For kinetic assays, endurazine nanoluciferase substrate was used in place of vivazine, and the plate was placed in a Cytation5 multi-mode reader pre-equilibrated to 37 °C and 5% CO2.

[3] = target: KRAS^G12C (Homo sapiens, UniProt P01116+P62937, G12C); assay: as above; format: cell-based; set-up: expressed in transfected cells; host or cells: U2OS; conditions: (95% CI)
From the text: as §1

[4] = target: KRAS WT (Homo sapiens, UniProt P01116+P62937); assay: as above; format: cell-based; set-up: expressed in transfected cells; host or cells: U2OS; conditions: (95% CI)
From the text: as §1

[5] = target: KRAS^G12D (Homo sapiens, UniProt P01116+P62937, G12D); assay: as above; format: cell-based; set-up: expressed in transfected cells; host or cells: U2OS; conditions: (95% CI)
From the text: as §1

[6] = target: KRAS^G13C (Homo sapiens, UniProt P01116+P62937, G13C); assay: as above; format: cell-based; set-up: expressed in transfected cells; host or cells: U2OS; conditions: (95% CI)
From the text: as §1

[7] = target: NRAS WT (Homo sapiens, UniProt P01111+P62937); assay: RAS binding affinity of compound-bound CYPA (Kd2), SPR; conditions: steady state SPR, (95% CI)
[8] = target: T1, WT KRAS (Homo sapiens, UniProt P01116+P62937); assay: KRAS–RALGDS RID binding inhibition in vitro; format: biochemical; set-up: TR-FRET of recombinant KRAS and RALGDS RID: scale not given here; conditions: for TR-FRET of recombinant KRAS and RALGDS RID: single replicates
T1 construct: His6-TEV (N); made in house; host or cells: E. coli BL21(DE3)

CCn1c(-c2cc(N3CCN(C4CC4)CC3)cnc2[C@H](C)OC)c2c3cc(ccc31)-c1csc(n1)C[C@H](NC(=O)[C@H]1[C@@H]3COC[C@@H]31)C(=O)N1CCC[C@H](N1)C(=O)OCC(C)(C)C2 [RMC-7977]
activity at 0.0037 µM ([1]; Homo sapiens, ASPC1, read-out: pERK inhibition in PPIA KO cells treated with RMC-7977, AsPC-1 PPIA KO, 3.70 nM): 109%
activity at 0.01111 µM ([1]; Homo sapiens, ASPC1, read-out: pERK inhibition in PPIA KO cells treated with RMC-7977, AsPC-1 PPIA KO, 11.11 nM): 110%
activity at 15.2 pM ([1]; Homo sapiens, NCI-H441, read-out: Proliferation inhibition in PPIA KO cells treated with RMC-7977, NCI-H441, 0.0152 nM): 124%
activity at 45.7 pM ([1]; Homo sapiens, NCI-H441, read-out: Proliferation inhibition in PPIA KO cells treated with RMC-7977, NCI-H441, 0.0457 nM): 124%
activity at 0.0037 µM ([1]; Homo sapiens, NCI-H441, read-out: Proliferation inhibition in PPIA KO cells treated with RMC-7977, NCI-H441, 3.70 nM): 33%
activity at 0.01111 µM ([1]; Homo sapiens, NCI-H441, read-out: Proliferation inhibition in PPIA KO cells treated with RMC-7977, NCI-H441, 11.11 nM): 24.4%
activity at 0.03333 µM ([1]; Homo sapiens, NCI-H441, read-out: Proliferation inhibition in PPIA KO cells treated with RMC-7977, NCI-H441, 33.33 nM): 22.2%
activity at 0.1 µM ([1]; Homo sapiens, NCI-H441, read-out: Proliferation inhibition in PPIA KO cells treated with RMC-7977, NCI-H441, 100.00 nM): 23.6%
activity at 0.3 µM ([1]; Homo sapiens, NCI-H441, read-out: Proliferation inhibition in PPIA KO cells treated with RMC-7977, NCI-H441, 300.00 nM): 27.5%
activity at 5.08 pM ([1]; Homo sapiens, NCI-H441, read-out: Proliferation inhibition in PPIA KO cells treated with RMC-7977, NCI-H441, […]): 120%
activity at 0.00041 µM ([1]; Homo sapiens, NCI-H441, read-out: pERK inhibition in PPIA KO cells treated with RMC-7977, NCI-H441, 0.41 nM): 88.1%
activity at 0.0037 µM ([1]; Homo sapiens, NCI-H441, read-out: pERK inhibition in PPIA KO cells treated with RMC-7977, NCI-H441, 3.70 nM): 11.8%
Proliferation inhibition with CYPA inhibitor competition ([1]; NCI-H441, RMC-7977 0.0152 nM): 112.235 and 120.202
pERK signal remaining (% of control) with CYPA inhibitor competition ([1]; NCI-H441, RMC-7977 0.0152 nM): 101.09 and 141.742 and 99.9715 and 108.212
Proliferation inhibition with CYPA inhibitor competition ([1]; NCI-H441, RMC-7977 0.0457 nM): 127.307 and 133.477
pERK signal remaining (% of control) with CYPA inhibitor competition ([1]; NCI-H441, RMC-7977 0.0457 nM): 116.541 and 138.344 and 94.9151 and 96.9475
Proliferation inhibition with CYPA inhibitor competition ([1]; NCI-H441, RMC-7977 0.41 nM): 83.6742 and 95.5735 and 83.4726 and 112.168
Proliferation inhibition with CYPA inhibitor competition ([1]; NCI-H441, RMC-7977 3.70 nM): 34.5277 and 37.2472 and 40.6838 and 40.7762
pERK signal remaining (% of control) with CYPA inhibitor competition ([1]; NCI-H441, RMC-7977 3.70 nM): 11.9888 and 19.4005 and 10.392 and 10.3218
Proliferation inhibition with CYPA inhibitor competition ([1]; NCI-H441, RMC-7977 11.11 nM): 26.6151 and 22.9193 and 35.0508 and 37.4802
Proliferation inhibition with CYPA inhibitor competition ([1]; NCI-H441, RMC-7977 33.33 nM): 29.0347 and 22.8651 and 29.7232 and 34.4423
Proliferation inhibition with CYPA inhibitor competition ([1]; NCI-H441, RMC-7977 100.00 nM): 28.8791 and 27.2758 and 27.7958 and 31.2386
Proliferation inhibition with CYPA inhibitor competition ([1]; NCI-H441, RMC-7977 300.00 nM): 32.3111 and 29.0775 and 27.5922 and 25.4872
EC50 [2]: 2.88 nM
EC50 [3]: 1.27 nM
EC50 [4]: 9.12 nM
EC50 [5]: 2.69 nM
EC50 [6]: 3.7 nM
Kd [7]: 101 nM
TR-FRET of recombinant KRAS and RALGDS RID ([8]; RMC-7977 0.005 nM with CYPA): 1.077 and 1.051 and 1.011 and 0.9577
TR-FRET of recombinant KRAS and RALGDS RID ([8]; RMC-7977 0.046 nM with CYPA): 0.9855 and 0.9772 and 0.9315 and 0.827
TR-FRET of recombinant KRAS and RALGDS RID ([8]; RMC-7977 0.412 nM with CYPA): 0.9473 and 0.8792 and 0.8105 and 0.8965
TR-FRET of recombinant KRAS and RALGDS RID ([8]; RMC-7977 1.235 nM with CYPA): 0.966 and 0.9012 and 0.7562 and 0.8255
TR-FRET of recombinant KRAS and RALGDS RID ([8]; RMC-7977 3.704 nM with CYPA): 0.755 and 0.7635 and 0.8193 and 0.729
TR-FRET of recombinant KRAS and RALGDS RID ([8]; RMC-7977 11.111 nM with CYPA): 0.531 and 0.5523 and 0.5275 and 0.6425
TR-FRET of recombinant KRAS and RALGDS RID ([8]; RMC-7977 33.333 nM with CYPA): 0.3432 and 0.2545 and 0.2295 and 0.2898
TR-FRET of recombinant KRAS and RALGDS RID ([8]; RMC-7977 100.000 nM with CYPA): 0.19 and 0.03225 and 0.05775 and 0.042
IC50 ([8]; recombinant, with CYPA): 14 nM
